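All cell lines were grown in 96-well plates and treated with compound for 48 hours. Abbreviation: GI50, concentration required for 50% inhibition of growth. TGI is the concentration that stops growth completely.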
Legend:
Assay in all cases: inhibition of tumour cell growth, NCI panel, 48 h
[1] = tested on: RPMI-8226 leukemia
[2] = tested on: UO-31 renal
[3] = tested on: A549 NSCLC
[4] = tested on: TK-10 renal
[5] = tested on: NCI-H23 lung
[6] = tested on: SF-295 CNS
[7] = tested on: SW-620 colon
[8] = tested on: HCT-116 colon
[9] = tested on: CCRF-CEM leukemia
[10] = tested on: SN12C renal
[11] = tested on: UACC-62 melanoma
[12] = tested on: HCC-2998 colon
[13] = tested on: SF-268 CNS
[14] = tested on: U251 CNS
[15] = tested on: K-562 leukemia
[16] = tested on: SR leukemia
[17] = tested on: NCI-H522 lung
[18] = tested on: NCI-H226 lung
[19] = tested on: NCI/ADR-RES ovarian
[20] = tested on: PC-3 prostate
[21] = tested on: OVCAR-8 ovarian
[22] = tested on: SNB-19 CNS
[23] = tested on: OVCAR-4 ovarian
[24] = tested on: 786-0 renal
[25] = tested on: CAKI-1 renal
[26] = tested on: UACC-257 melanoma
[27] = tested on: LOX IMVI melanoma
[28] = tested on: RXF 393 renal
[29] = tested on: HOP-62 NSCLC
[30] = tested on: SK-MEL-28 melanoma
[31] = tested on: SK-MEL-2 melanoma
[32] = tested on: HT29 colon
[33] = tested on: OVCAR-5 ovarian
[34] = tested on: MOLT-4 leukemia
[35] = tested on: BT-549 breast
[36] = tested on: HCT-15 colon
[37] = tested on: HOP-92 NSCLC
[38] = tested on: COLO 205 colon
[39] = tested on: MCF7 breast
[40] = tested on: EKVX NSCLC
[41] = tested on: IGROV1 ovarian
[42] = tested on: M14 melanoma
[43] = tested on: KM12 colon
[44] = tested on: MDA-MB-231 breast
[45] = tested on: DU-145 prostate
[46] = tested on: SF-539 CNS
[47] = tested on: SNB-75 CNS
[48] = tested on: A498 renal
[49] = tested on: HS 578T breast
[50] = tested on: MDA-MB-435
[51] = tested on: T-47D breast
[52] = tested on: SK-MEL-5 melanoma
[53] = tested on: MALME-3M melanoma
[54] = tested on: ACHN renal
[55] = tested on: NCI-H460 lung
[56] = tested on: OVCAR-3 ovarian

With `Nc1[nH]nc2nc(-c3cc(Cl)ccc3Cl)cc(-c3ccc(F)cc3)c12` the GI50 [1] was 18.4 µM, the TGI [1] was 50.5 µM and the GI50 [2] was 13.8 µM. The TGI [2] was 34.7 µM, the GI50 [3] was 22.9 µM and the TGI [3] was 87.3 µM. The GI50 [4] was 52.9 µM, the TGI [4] was > 100 µM and the GI50 [5] was 28.8 µM. It also gave a TGI [5] of 72.1 µM, a GI50 [6] of 25.7 µM and a TGI [6] of 73.4 µM. It also gave a GI50 [7] of 25.4 µM, a TGI [7] of 68.7 µM and a GI50 [8] of 18.9 µM. For the same compound, the TGI [8] was 39.7 µM, the GI50 [9] was 0.813 µM and the TGI [9] was 11.3 µM. It also gave a GI50 [10] of 20.4 µM, a TGI [10] of 38.6 µM and a GI50 [11] of 16 µM. It also gave a TGI [11] of 32.4 µM, a GI50 [12] of 19.1 µM and a TGI [12] of 36.1 µM. The GI50 [13] was 18.2 µM, the TGI [13] was 43.6 µM and the GI50 [14] was 21.6 µM. For the same compound, the TGI [14] was 44.8 µM, the GI50 [15] was 43.9 µM and the TGI [15] was > 100 µM. For the same compound, the GI50 [16] was 18 µM, the TGI [16] was 69.2 µM and the GI50 [17] was 14.4 µM. For the same compound, the TGI [17] was 31.5 µM, the GI50 [18] was 22.6 µM and the TGI [18] was 60.6 µM. For the same compound, the GI50 [19] was 23 µM, the TGI [19] was 59.9 µM and the GI50 [20] was 28.3 µM. It also gave a TGI [20] of 90.3 µM, a GI50 [21] of 14.3 µM and a TGI [21] of 59.5 µM. For the same compound, the GI50 [22] was 35.7 µM, the TGI [22] was > 100 µM and the GI50 [23] was 39.2 µM. The TGI [23] was > 100 µM, the GI50 [24] was 23.7 µM and the TGI [24] was 59.2 µM. The GI50 [25] was 26.9 µM, the TGI [25] was > 100 µM and the GI50 [26] was 25.2 µM. For the same compound, the TGI [26] was 68.3 µM, the GI50 [27] was 19.3 µM and the TGI [27] was 38 µM. For the same compound, the GI50 [28] was 18.3 µM, the TGI [28] was 42.3 µM and the GI50 [29] was 22.7 µM. The TGI [29] was 47.8 µM, the GI50 [30] was 36.9 µM and the TGI [30] was > 100 µM. The GI50 [31] was 21.2 µM, the TGI [31] was 43.2 µM and the GI50 [32] was 32.5 µM. For the same compound, the TGI [32] was > 100 µM, the GI50 [33] was 24.3 µM and the TGI [33] was 59.8 µM. For the same compound, the GI50 [34] was 23.2 µM, the TGI [34] was > 100 µM and the GI50 [35] was 14.3 µM. For the same compound, the TGI [35] was 31.3 µM, the GI50 [36] was 28.5 µM and the TGI [36] was > 100 µM. The GI50 [37] was 14.5 µM, the TGI [37] was 30 µM and the GI50 [38] was 16.5 µM. The TGI [38] was 34.1 µM, the GI50 [39] was 11.8 µM and the TGI [39] was 37.5 µM. For the same compound, the GI50 [40] was 17.5 µM, the TGI [40] was 58.3 µM and the GI50 [41] was 19 µM. The TGI [41] was 48.7 µM, the GI50 [42] was 27.9 µM and the TGI [42] was 49.8 µM. For the same compound, the GI50 [43] was 22.6 µM, the TGI [43] was 58 µM and the GI50 [44] was 19.9 µM. It also gave a TGI [44] of 61.1 µM, a GI50 [45] of 23.6 µM and a TGI [45] of 53.8 µM. The TGI [46] was 21.1 µM, the GI50 [47] was 51.5 µM and the TGI [47] was > 100 µM. The GI50 [48] was 20.4 µM, the TGI [48] was 42.2 µM and the GI50 [49] was 24.1 µM. The TGI [49] was 53.7 µM, the GI50 [50] was 30.3 µM and the TGI [50] was 56 µM. The GI50 [51] was 20.2 µM, the TGI [51] was > 100 µM and the GI50 [52] was 16.6 µM. The TGI [52] was 34.1 µM, the GI50 [53] was 27.2 µM and the TGI [53] was 59.3 µM. For the same compound, the GI50 [54] was 31.9 µM, the TGI [54] was > 100 µM and the GI50 [55] was 19.7 µM. For the same compound, the TGI [55] was 58 µM, the GI50 [56] was 24 µM and the TGI [56] was 65.4 µM.

— PubChem BioAssay (NCI)
